In patent US20240165259A1, “BIOORTHOGONAL REACTION SUITABLE FOR CLICK/UNCLICK APPLICATIONS” (DANA-FARBER CANCER INSTITUTE, INC., priority 2021, published 2024):

How the values were obtained:
[1] = target: T1, lysozyme-COT 15 in HEK293T cell lysate (Gallus gallus, UniProt P00698); assay: Protein labeling in the presence of HEK293T cell lysate; type: biochemical; details: 13 and lysozyme-COT 15, HEK293T cell lysate, PBS, 2 hours
T1 construct: purchased
Protocol: There appeared to be no cross-reactivity between dialkylhydroxylamine and other proteins under these conditions.
Cell Culture: HEK-293T cells were cultured in Dulbecco's Modified Eagle Media (DMEM, Corning®) containing 10% fetal bovine serum (FBS, Sigma), 100 units/mL penicillin, and 0.1 mg/mL streptomycin (Sigma) in a humidified chamber at 37° C. with 5% CO2. Cells were passaged and dissociated with 0.25% trypsin, 0.1% ethylenediaminetetraacetic acid (EDTA) in Hanks' balanced salt solution (HBSS) (Corning®). Cells tested negative for […] by the MycoAlert™ PLUS Mycoplasma Detection Kit (Lonza) following the manufacturer's protocol.
Cell Lysate: Cell culture media was aspirated prior to lysis. Cells (10 cm dish, ˜80% confluency) was lysed by adding lysis buffer (1.0 mL, 4° C.; 150 mM NaCl, 50 mM Tris (pH 8.0), 1% triton X-100). After centrifugation (13,000×g) at 4° C., the supernatant was transferred to a clean tube, and the protein concentration was determined by BCA (bicinchoninic acid) protein assay (Pierce™ BCA Protein Assay Kit). […]
Protein Labeling Experiments: Lysozyme-COT 15 (0.75 μg, 5.0 μL, 0.15 mg/mL in deionized water) was aliquoted to form 4 samples. […] In-gel fluorescence was imaged with a Typhoon™ FLA 9500 (GE) at 532 nm with a photomultiplier tube (PMT) setting of 500 V. The experiment was carried out in triplicate.

[2] = Stability in PBS with or without glutathione, sodium ascorbate or HEK293T cell lysate (HPLC); type: physicochemical
Protocol: The stability of both the enamine N-oxide and hydroxylamine species under a variety of biologically relevant conditions were verified at various time points (FIG. 5A-FIG. 5B). […] However, approximately 40% of the hydroxylamine had decomposed by the 24 hour time point. The primary degradation products were consistent with hydrolysis of the regioisomeric nitrones that were likely generated by autoxidation. Consequently, this degradation pathway could be abrogated by the addition of cellular reductants such as ascorbic acid (5 mM) or glutathione (5 mM) (Bobko et al., Free Radical Biol. Med. 42(3):404-412 (2007)).
As with the hydroxylamine, the stability of enamine N-oxide 17 was evaluated by HPLC under biologically relevant conditions.
All reactions were monitored by HPLC at 0, 1, 2, 4, 8, and 24 hour time points.
HPLC analysis: Reactions with enamine N-oxide 17 were analyzed by HPLC (Pursuit 200 Å C18, 4.6×150 mm, 10 μm particles, 1 mL/min flow rate, eluent: isocratic 0% MeCN/H2O+0.1% TFA (1 min), gradient 0→100% MeCN/H2O+0.1% TFA (14 minutes), isocratic 100% MeCN/H2O+0.1% TFA (1 minute)) and quantified using its absorbance at 280 nm. Reactions with hydroxylamine 13 were analyzed by HPLC (Pursuit 200 Å C18, 4.6×150 mm, 10 μm particles, 1 mL/min flow rate, eluent: isocratic 0% MeCN/H2O+0.1% TFA (1 minute), gradient 0-20% MeCN/H2O+0.1% TFA (1 minute), gradient 20-50% MeCN/H2O+0.1% TFA (16 minutes), gradient 50→100% MeCN/H2O+0.1% TFA (2 minutes), isocratic 100% MeCN/H2O+0.1% TFA (1 minute)) and quantified using its absorbance at 254 nm.
Stability in PBS: Enamine N-oxide 17 (4 μL, 15 mM in 25% v/v MeOH/PBS, pH 7.4) was added to PBS (116 μL, pH 7.4; 500 μM final concentration). Separately, hydroxylamine 13 (3 μL, 20 mM in deionized H2O) was added to PBS (117 μL, pH 7.4; 500 μM final concentration). Each solution was monitored by HPLC at each time point.
Stability in the presence of glutathione, sodium ascorbate, and cell lysate: The reactions were conducted as described above in the Stability in PBS section except the PBS solution was first supplemented with glutathione (5 mM final concentration), sodium ascorbate (5 mM final concentration), or HEK293T cell lysate (1 mg/mL final concentration) and pH adjusted to 7.4 before adding enamine N-oxide 17 (500 μM final concentration) or hydroxylamine 13 (500 μM final concentration).

T1 sequence (P00698 19-147): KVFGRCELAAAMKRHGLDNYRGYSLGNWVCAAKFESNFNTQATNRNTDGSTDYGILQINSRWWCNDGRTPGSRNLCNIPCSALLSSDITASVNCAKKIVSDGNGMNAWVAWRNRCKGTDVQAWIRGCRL

## CN(O)CCOCCNC(=O)c1ccc2c(c1)C1(OC2=O)c2ccc(N(C)C)cc2Oc2cc(N(C)C)ccc21 [compound 13, 3′,6′-bis(dimethylamino)-N-(2-(2-(hydroxy(methyl)amino)ethoxy)ethyl)-3-oxo-3H-spiro[isobenzofuran-1,9′-xanthene]-6-carboxamide]
[1]
  labeling specificity in the presence of cell lysate: lysozyme was labeled exclusively
[2]; HEK293T cell lysate (1 mg/mL), 24 hours, no exogenous reductants
  degradation in cell lysate: no degradation above background
[2]; PBS with ascorbic acid (5 mM) or glutathione (5 mM), 24 hours
  degradation in the presence of cellular reductants: Negligible degradation
[2]; PBS, room temperature, 24 hour time point
  hydroxylamine decomposed: approximately 40%
[2]; PBS, room temperature, up to 8 hours, HPLC
  compound intact: > 86%
